Test results as given in patent publication US20110110886A1, “SMALL MOLECULE INHIBITORS OF AUTOTAXIN AND METHODS OF USE” (Yale University, priority 2008, published 2011).

Legend:
[1] = biological target: T1, ATX (recombinant full-length human ATX), lysoPLD activity (Homo sapiens, UniProt Q13822); assay: Steady-state ATX lysoPLD activity with fluorescent LPC analogue FS-3; type: biochemical; settings: for type of inhibition of ATX lysoPLD activity: substrate FS-3; for Ki: substrate FS-3, 37° C.
T1 construct: consistent with a mature, glycosylated form of the enzyme; TEV cleavage site (C); 9-His (C); 6-His (C); made in house; host or cells: High Five insect cells (baculovirus, p-DEST-8)
Protocol: Protein expression and purification: The full length human NPP2 gene (NCBI accession #BC034961) followed by a C-terminal TEV cleavage site and a 9-His and 6-His purification tag was cloned and transferred into a p-DEST-8 baculovirus shuttle vector (Invitrogen), and bacmid DNA was generated by standard methods. […] Three days post infection, the supernatant was adjusted to a final concentration of 50 mM Tris pH 8.0, 5 mM CaCl2, and 1 mM NiSO4 and stirred for 10 min. at room temperature. […] Purified ATX was concentrated to approximately 10 mg mL^−1, and dialyzed into the appropriate assay buffer.
Fluorescence was measured (λex=485 nm, λem=520 nm) on a SpectraMax Gemini XPS at 37° C. under buffer conditions similar to the PDE assays but lacking BSA. […] The spontaneous reaction rates were subtracted from the enzyme catalyzed rates.
The steady-state rates (v) of product formation were obtained by fitting the time courses of absorbance or fluorescence change to linear functions. […] FS-3 hydrolysis product formation was quantitated in arbitrary fluorescence units.
The Michaelis constants (KM) and the catalytic turnover rate constants (kcat) were obtained by fitting the [substrate]-dependence of v to a rectangular hyperbola in the form of the Briggs-Haldane equation: […]
in which [S] is [pNP-TMP] or [FS-3]. Inhibitors were treated as reversible inhibitors and analyzed according to the general steady-state linear enzyme inhibitor scheme:
in which E is ATX, S is pNP-TMP or FS-3 substrate, P are the hydrolysis products, and K1 is the dissociation equilibrium constant for inhibitor binding. The values of α and K1 were obtained by fitting the steady-state rates of product formation (v) to the general inhibition equation: […]
in which [I] is the inhibitor concentration, kcat is the maximum catalytic turnover rate, and KS is the Michaelis constant of the substrate obtained in the absence of inhibitor.
The type of inhibition (competitive, noncompetitive, or uncompetitive) depends on the value of α.
The type of inhibition was assigned if the difference between the r^2 values of the fits to the general inhibition equation (Eq 2) and the specific inhibition (i.e. competitive, noncompetitive or uncompetitive) equations was less than 0.01.

[2] = tested on: Human breast adenocarcinoma cells, MDA-MB-231; assay: Matrigel cell invasion assay, breast cancer cells; type: cell-based; settings: 50 nM ATX
Protocol: Cell culture: Human melanoma cells, A2058 (ATCC), were grown in Dulbecco's Modified Eagle's Medium (DMEM) (Gibco), MeI 28 (ATCC), YUSAC2 (Yale University) and MeI-888 (Yale University) were grown in OptiMEM media (Gibco), and HTB 63 (ATCC) were grown in McKoy's 5a medium (ATCC). Human breast adenocarcinoma cells, MDA-MB-231(ATCC) and ovarian carcinoma cells R182 (Gil Mor, Yale University) were grown in RPMI-1640 (Gibco). All cell media was supplemented with 10% (v/v) fetal calf serum (FCS) (Gibco) and 1% (v/v) L-glutamine (Gibco) and grown at 37° C. in a humidified atmosphere containing 5% CO2.
Cell invasion assays: Matrigel matrix (1 mg/ml, Becton Dickenson) was added to […] gelatin-coated membranes placed in cell culture inserts (BD Falcon) and allowed to set for 24 hours at room temperature. The inserts were placed into companion 24 well plates (BD Falcon), and chemo-attractants (ATX ±inhibitors) and/or controls were added to the bottom of the wells. Cells (1×10^6) were added to the inserts and incubated for 3 hours at 37° C. Following incubation, the inserts were removed, fixed in 100% methanol, stained with DiffQuick solution, and mounted on glass slides. Non-invading cells were removed by scraping away the matrigel, and migrating cells were quantitated by counting cell number per high-powered field.

[3] = tested on: human melanoma cell line A2058; assay: Melanoma invasion and metastasis in vivo, nude mice with subcutaneous A2058; settings: oral gavage of bithionol-cyclodextrin suspension
Protocol: (§1) Nude mice were inoculated with human melanoma cell line A2058 subcutaneously in the right flank and observed until the tumor was palpable (about 5-8 days). The mice were then treated with oral gavage of a bithionol-cyclodextrin suspension (A-D) or a cyclodextrin suspension alone (E-H). […] Two of the untreated mice developed large tumors in the right hindquarter (cyan arrow, E) that grossly invaded the right gluteous maximus and could not be dissected without amputation (E&F). […] Of the remaining untreated mice, one developed a modest sized tumor with microscopic evidence of invasion, and a one developed a tumor without gross or microscopic evidence of invasive tumor.
as §1, with “The present invention was also tested in vivo. Nude” for “Nude”

Structure (SMILES)	type of inhibition of ATX lysoPLD activity [1]	Ki [1]	reduction of ATX-stimulated breast cancer cell invasion [2]	microscopic appearance of the tumors [3]	gross evidence of metastatic melanoma upon necropsy ([3]; 5 mice)
Oc1c(Cl)cc(Cl)cc1Sc1cc(Cl)cc(Cl)c1O [Bithionol]	competitively inhibits	66 µM	could be reduced	self-contained balls of tumor cells (C) with a pushing border	lacked gross evidence of metastatic melanoma
O=[As](O)(O)c1ccc(Cc2ccc([As](=O)(O)O)cc2)cc1 [NSC 48300]	competitively inhibits	0.24 µM	could be reduced	–	–
